According to US9048628B2, “Solid-state dye laser medium and process for production thereof” (KYUSHU UNIVERSITY, NATIONAL UNIVERSITY CORPORATION, priority 2011, dated 2015):

Legend:
[1] = Maximum concentration soluble in polydimethylsiloxane (PDMS) when toluene was used; assay type: physicochemical
Protocol: Pyrromethene 597 (PM597, produced by Exciton) as a dye was dissolved in toluene to prepare a solution of a saturated concentration (100 to 130 mmol/L). This dye solution was mixed at a mixing ratio of […] (volume ratio) with a dimethylsiloxane oligomer (SIM-360, produced by Shin-Etsu Chemical Co., Ltd.) being a polydimethylsiloxane precursor, and the mixture was stirred for 2 days for thorough uniform dispersing. Then, the dispersion was further heated at 72° C. to evaporate toluene, thus adjusting the system to a final dye concentration of 3 mmol/L.
(§1) Using the dyes indicated below, maximum concentrations at which they were soluble in polydimethylsiloxane (PDMS) were investigated in the same manners as in Examples 1 and 2.

[2] = Maximum concentration soluble in polydimethylsiloxane (PDMS) when silicone oil was used; assay type: physicochemical; conditions: silicone oil used as in Example 2
Source text: A DFB laser was produced in the same manner as in Example 1, except that a silicone oil (KF-1065, produced by Shin-Etsu Chemical Co., Ltd.) was used instead of toluene, and that the step of removing toluene was not performed.
as §1

[3] = dye unchanged, without silicone oil

Highest concentration dissolving in dimethylsiloxane [1, 3] [mmol/L] | Behavior of dissolution in PDMS when toluene was used: State ([1]; toluene used as in Example 1) | Behavior of dissolution in PDMS when silicone oil was used: State [2] | Structure (SMILES) | Dissolution in dimethylsiloxane (in words) [1, 3]
3 | dissolved | dissolved | CC1=C(C(C)(C)C)C(C)=[N+]2C1=C(C)c1c(C)c(C(C)(C)C)c(C)n1[B-]2(F)F [PM597] | –
– | – | lumpy→ | CCCCC1=C(C)C2=C(C)c3c(C)c(CCCC)c(C)n3[B-](F)(F)[N+]2=C1C [PM580] | –
– | – | dissolved | CCC1=C(C)C2=C(C)c3c(C)c(CC)c(C)n3[B-](F)(F)[N+]2=C1C [PM567] | –

Continued, compound first:

Structure (SMILES) | Highest concentration dissolving in dimethylsiloxane [1, 3] [mmol/L] | Behavior of dissolution in PDMS when toluene was used: State ([1]; toluene used as in Example 1) | Behavior of dissolution in PDMS when silicone oil was used: State [2] | Dissolution in dimethylsiloxane (in words) [1, 3]
CCC1=C(C)C2=C(COC(C)=O)c3c(C)c(CC)c(C)n3[B-](F)(F)[N+]2=C1C [PM605] | – | – | dissolved | –
CC1=C(S(=O)(=O)[O-])C(C)=[N+]2C1=C(C)c1c(C)c(S(=O)(=O)[O-])c(C)n1[B-]2(F)F.[Na+].[Na+] [PM556] | – | – | dispersed | –
CC1=C(C)C(C)=[N+]2C1=C(C#N)c1c(C)c(C)c(C)n1[B-]2(F)F [PM650] | – | – | dissolved | poses difficulty in dissolving to a lower limit concentration at which laser oscillation becomes possible
CCN=c1cc2oc3cc(NCC)c(C)cc3c(-c3ccccc3C(=O)OCC)c-2cc1C.Cl [Rh6G] | – | – | lumpy→ | –
